For 25 compounds, Ki and IC50 results are on record in patent publication US7868026B2, “Therapeutic compounds” (Pfizer Inc., priority 2005, dated 2011).

Read-outs that look alike come from different tables or passages of the source.

Holding throughout (type): biochemical
For test [1], the target named is T1, CYP3A4 (Homo sapiens, UniProt P08684). Put plainly: Determination of compound Kiapp against recombinant CYP3A4 enzyme (BFC fluorescent substrate). The method in brief:
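Kiapp derived from initial velocities over the first 5 min of BFC (5 uM) oxidation, using Morrison's tight-binding equation for non-partial and Szedlacsek's for partial inhibitors. Inhibitor first pre-incubated ≥30 min with CYP3A4 (5.5 or 8 nM, ±b5) in pH 7.0 phosphate/TCEP/2% DMF at room temperature; 200 uM NADPH initiated.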

The target in test [2] is T1, CYP3A4. Put plainly: Determination of IC50 against CYP3A4 by measurement of inhibition of testosterone metabolism (human liver microsomes, 6-β-OH-testosterone by LC-MS/MS). Also on record: 0.1 mg/mL human liver microsomes. As to conditions: read-out: IC50 (Testo.). The method in brief: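 6-β-OH-testosterone formation was read by LC-MS/MS (MRM, internal standard, standard curve) after eight minutes. Reaction contained testosterone 25 μM, NADPH 1 mM and microsomal protein 0.1 mg/mL in pH 7.4 potassium phosphate (100 mM).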

Test [3] deals with T1, CYP3A4. Put plainly: Determination of IC50 against CYP3A4 by measurement of inhibition of midazolam metabolism (human liver microsomes, 1-hydroxymidazolam by LC-MS/MS). Set-up: 0.1 mg/mL human liver microsomes. As to conditions: 2 μM midazolam, 0.1 mg/mL human liver microsomes. The method in brief: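 Human liver microsomes (0.1 mg/mL) incubated 8 min with 2 μM midazolam and 1 mM NADPH in 100 mM potassium phosphate, pH 7.4. 1-Hydroxymidazolam quantified by LC-MS/MS (MRM) as peak area ratio to internal standard against a metabolite standard curve.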
(In general: Liver microsomes are vesicles of endoplasmic reticulum, rich in cytochrome P450 enzymes.)

Where [4] appears, read: Baculo. enzyme preparation, read-out: Kiapp (BFC, Baculo.).
Where [5] appears, read: Super. enzyme preparation, read-out: Kiapp (BFC, Super.).

T1 sequence (P08684 whole entry): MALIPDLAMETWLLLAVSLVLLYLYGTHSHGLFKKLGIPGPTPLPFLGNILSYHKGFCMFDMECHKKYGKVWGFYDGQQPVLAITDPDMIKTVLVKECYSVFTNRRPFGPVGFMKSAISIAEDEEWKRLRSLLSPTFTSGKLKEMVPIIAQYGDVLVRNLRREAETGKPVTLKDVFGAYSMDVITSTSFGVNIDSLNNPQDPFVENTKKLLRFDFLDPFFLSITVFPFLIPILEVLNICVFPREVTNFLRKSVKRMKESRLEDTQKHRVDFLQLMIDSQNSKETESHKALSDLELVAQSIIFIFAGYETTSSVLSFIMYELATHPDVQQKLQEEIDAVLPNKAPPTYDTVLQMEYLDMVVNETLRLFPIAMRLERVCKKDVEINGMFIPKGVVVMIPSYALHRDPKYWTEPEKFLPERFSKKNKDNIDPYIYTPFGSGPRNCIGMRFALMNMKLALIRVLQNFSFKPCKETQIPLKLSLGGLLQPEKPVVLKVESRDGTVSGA

Take `O=C(NCc1ccc(F)c(F)c1)c1ccccc1S(=O)(=O)Nc1cccnc1` [Example 85, N-(3,4-difluorobenzyl)-2-[(pyridin-3-ylamino)sulfonyl]benzamide]: the Ki in test [1] (setting [4]) is 105 nM; in test [1] (setting [5]) it was 12.1 nM. Also, the IC50 – broadly, the concentration at which inhibition is half-maximal – in test [2] was 41 nM; in test [3] it was 16 nM.

Consider `CC(C)(O)c1ccc(CNC(=O)c2ccccc2S(=O)(=O)Nc2cccnc2)cc1` [Example 86, N-[4-(1-hydroxy-1-methylethyl)benzyl]-2-[(pyridin-3-ylamino)sulfonyl]benzamide], for which the Ki in test [1] (setting [4]) is over 1000 nM; in test [1] (setting [5]), 209 nM. Further, the figures for the IC50 in test [2] and in test [3] were 27 nM and 118 nM, respectively.

As for `O=C(NCc1cccc(F)c1F)c1ccccc1S(=O)(=O)Nc1cccnc1` [Example 87, N-(2,3-difluorobenzyl)-2-[(pyridin-3-ylamino)sulfonyl]benzamide], the Ki in test [1] (setting [4]) amounted to 90 nM; in test [1] (setting [5]), 6.3 nM. The IC50 in test [2] was determined as 10 nM; in test [3] it was 30 nM.

With `O=C(c1ccccc1S(=O)(=O)Nc1cccnc1)N1Cc2ccccc2C1` [Example 88, 2-(1,3-dihydro-2H-isoindol-2-ylcarbonyl)-N-pyridin-3-ylbenzenesulfonamide], the Ki in test [1] (setting [4]) worked out at 362 nM; in test [1] (setting [5]) it was 47.6 nM. The IC50 worked out at 28 nM in test [2] and 185 nM in test [3].

As to `O=C(NCc1ccc2ncccc2c1)c1ccccc1S(=O)(=O)Nc1cccnc1` [Example 89, 2-[(pyridin-3-ylamino)sulfonyl]-N-(quinolin-6-ylmethyl)benzamide], the Ki in test [1] (setting [4]) was over 1000 nM; in test [1] (setting [5]), 218 nM. The IC50 in test [2] is 60 nM; in test [3], 54 nM.

As to `COc1ccccc1CNC(=O)c1ccccc1S(=O)(=O)Nc1cccnc1` [Example 90, N-(2-methoxybenzyl)-2-[(pyridin-3-ylamino)sulfonyl]benzamide], the Ki in test [1] (setting [4]) was determined as 313 nM; in test [1] (setting [5]), 25.2 nM. The IC50 is 36 nM in test [2] and 10 nM in test [3].

With `COc1cncc(NS(=O)(=O)c2ccccc2C(=O)NC(C)(C)c2ccc(F)c(F)c2)c1` [Example 148, N-[1-(3,4-difluorophenyl)-1-methylethyl]-2-{[(5-methoxypyridin-3-yl)amino]sulfonyl}benzamide], the figures for the Ki in test [1] (setting [4]) and in test [1] (setting [5]) were 18.1 nM and 4.9 nM, respectively. Also, the IC50 is 15 nM in test [2] and under 3 nM in test [3].

Consider `COc1cncc(NS(=O)(=O)c2ccccc2C(=O)NC2CCC(C)CC2)c1` (stereo not shown) [Example 149, 2-{[(5-methoxypyridin-3-yl)amino]sulfonyl}-N-(4-methylcyclohexyl)benzamide], for which the Ki in test [1] (setting [4]) was found to be 208 nM; in test [1] (setting [5]) it was 12.3 nM. In addition, the figures for the concentration for half-maximal inhibition (IC50) in test [2] and in test [3] were 21 nM and 12 nM, respectively.

`COc1cncc(NS(=O)(=O)c2ccccc2C(=O)NCc2ccc(Cl)cc2F)c1` [Example 150, N-(4-chloro-2-fluorobenzyl)-2-{[(5-methoxypyridin-3-yl)amino]sulfonyl}benzamide]: the Ki is 52.2 nM in test [1] (setting [4]) and 9.2 nM in test [1] (setting [5]). The values for the IC50 in test [2] and in test [3] were 15 nM and 38 nM, respectively.

As for `COc1cncc(NS(=O)(=O)c2ccccc2C(=O)NCc2cc(Cl)ccc2F)c1` [Example 151, N-(5-chloro-2-fluorobenzyl)-2-{[(5-methoxypyridin-3-yl)amino]sulfonyl}benzamide], the values for the Ki in test [1] (setting [4]) and in test [1] (setting [5]) were 120 nM and 12.2 nM, respectively. Further, the IC50 is 16 nM in test [2] and 28 nM in test [3].

With `COc1cncc(NS(=O)(=O)c2ccccc2C(=O)NCCc2cccc(Cl)c2)c1` [Example 152, N-[2-(3-chlorophenyl)ethyl]-2-{[(5-methoxypyridin-3-yl)amino]sulfonyl}benzamide], the Ki was 46.1 nM in test [1] (setting [4]) and 6.4 nM in test [1] (setting [5]). Also, the figures for the IC50 in test [2] and in test [3] were 23 nM and 13 nM, respectively.

For `COc1cncc(NS(=O)(=O)c2ccccc2C(=O)NCc2ccc3c(c2)CCO3)c1` [Example 153, N-(2,3-dihydro-1-benzofuran-5-ylmethyl)-2-{[(5-methoxypyridin-3-yl)amino]sulfonyl}benzamide], the Ki stood at 262 nM in test [1] (setting [4]) and 27.1 nM in test [1] (setting [5]). Besides, the IC50 in test [2] is 19 nM; in test [3], 5 nM.

With `Cc1cncc(NS(=O)(=O)c2ccccc2C(=O)N(C)CCc2ccccc2C)c1` [Example 154, N-methyl-N-[2-(2-methylphenyl)ethyl]-2-{[(5-methylpyridin-3-yl)amino]sulfonyl}benzamide], the Ki turned out to be 11.5 nM in test [1] (setting [4]) and 3.2 nM in test [1] (setting [5]). For the same compound, the IC50 came out at 23 nM in test [2] and 6 nM in test [3].

With `Cc1cncc(NS(=O)(=O)c2ccccc2C(=O)NCc2cc(Cl)cc(Cl)c2)c1` [Example 155, N-(3,5-dichlorobenzyl)-2-{[(5-methylpyridin-3-yl)amino]sulfonyl}benzamide], the figures for the Ki in test [1] (setting [4]) and in test [1] (setting [5]) were 2.8 nM and 1.6 nM, respectively. Moreover, the 50% inhibitory concentration (IC50) in test [2] is 15 nM; in test [3] it was 8 nM.

Regarding `Cc1cncc(NS(=O)(=O)c2ccccc2C(=O)NCc2ccc(F)c(C)c2)c1` [Example 156, N-(4-fluoro-3-methylbenzyl)-2-{[(5-methylpyridin-3-yl)amino]sulfonyl}benzamide], the Ki in test [1] (setting [4]) was 84 nM; in test [1] (setting [5]), 5 nM. In addition, the IC50 is 11 nM in test [2] and 13 nM in test [3].

Regarding `Cc1cncc(NS(=O)(=O)c2ccccc2C(=O)NCc2ccc(C)c(F)c2)c1` [Example 157, N-(3-fluoro-4-methylbenzyl)-2-{[(5-methylpyridin-3-yl)amino]sulfonyl}benzamide], the Ki was found to be 49.4 nM in test [1] (setting [4]) and 1.3 nM in test [1] (setting [5]). Also, the IC50 in test [2] and in test [3] was 8 nM each time.

For the compound `Cc1cncc(NS(=O)(=O)c2ccccc2C(=O)NCc2ccc(F)c(Cl)c2)c1` [Example 158, N-(3-chloro-4-fluorobenzyl)-2-{[(5-methylpyridin-3-yl)amino]sulfonyl}benzamide], the Ki in test [1] (setting [4]) worked out at 19.7 nM; in test [1] (setting [5]) it was 0.9 nM. The half-maximal inhibitory concentration (IC50) in test [2] amounted to 10 nM; in test [3], 6 nM.

Consider `Cc1cncc(NS(=O)(=O)c2ccccc2C(=O)NCc2ccc(S(C)(=O)=O)cc2)c1` [Example 159, 2-{[(5-methylpyridin-3-yl)amino]sulfonyl}-N-[4-(methylsulfonyl)benzyl]benzamide], for which the Ki in test [1] (setting [4]) came out at 751 nM; in test [1] (setting [5]) it was 144 nM. Further, the 50% inhibitory concentration (IC50) in test [2] was found to be 129 nM; in test [3], 64 nM.

As to `CCOc1ccncc1NS(=O)(=O)c1ccccc1C(=O)N(C)CCOC` [Example 160, 2-{[(4-ethoxypyridin-3-yl)amino]sulfonyl}-N-(2-methoxyethyl)-N-methylbenzamide], the Ki is over 1000 nM in test [1] (setting [4]) and 163 nM in test [1] (setting [5]). Also, the figures for the IC50 in test [2] and in test [3] were 202 nM and 129 nM, respectively.

As to `COCCN(C)C(=O)c1ccccc1S(=O)(=O)Nc1cnccc1OC` [Example 161, N-(2-methoxyethyl)-2-{[(4-methoxypyridin-3-yl)amino]sulfonyl}-N-methylbenzamide], the values for the Ki in test [1] (setting [4]) and in test [1] (setting [5]) were over 1000 nM and 418 nM, respectively. In addition, the IC50 in test [2] came out at 371 nM; in test [3] it was 308 nM.

With `COCCN(C)C(=O)c1ccccc1S(=O)(=O)Nc1cncc(C)c1` [Example 162, N-(2-methoxyethyl)-N-methyl-2-{[(5-methylpyridin-3-yl)amino]sulfonyl}benzamide], the values for the Ki in test [1] (setting [4]) and in test [1] (setting [5]) were 469 nM and 99.9 nM, respectively. In addition, the IC50 stood at 170 nM in test [2] and 93 nM in test [3].

Regarding `CN(Cc1ccc(F)c(F)c1)C(=O)c1ccccc1S(=O)(=O)Nc1cncc(F)c1` [Example 163, N-(3,4-difluorobenzyl)-2-{[(5-fluoropyridin-3-yl)amino]sulfonyl}-N-methylbenzamide], the Ki in test [1] (setting [4]) amounted to 263 nM; in test [1] (setting [5]), 58 nM. For the same compound, the results for the IC50 in test [2] and in test [3] were 82 nM and 49 nM, respectively.

As to `Cc1ccncc1NS(=O)(=O)c1ccccc1C(=O)N(C)CCC(C)C` [Example 164, N-methyl-N-(3-methylbutyl)-2-{[(4-methylpyridin-3-yl)amino]sulfonyl}benzamide], the Ki in test [1] (setting [4]) was found to be 281 nM; in test [1] (setting [5]), 34.3 nM. Besides, the IC50 in test [2] was 47 nM; in test [3], 24 nM.

For the compound `Cc1ccncc1NS(=O)(=O)c1ccccc1C(=O)N(C)Cc1ccc(C(F)(F)F)cc1` [Example 165, N-methyl-2-{[(4-methylpyridin-3-yl)amino]sulfonyl}-N-[4-(trifluoromethyl)benzyl]benzamide], the Ki in test [1] (setting [4]) came out at 163 nM; in test [1] (setting [5]), 29.6 nM. In addition, the IC50 was 54 nM in test [2] and 43 nM in test [3].

With `Cc1ccc(CNC(=O)c2ccccc2S(=O)(=O)Nc2cnccc2C)cc1F` [Example 166, N-(3-fluoro-4-methylbenzyl)-2-{[(4-methylpyridin-3-yl)amino]sulfonyl}benzamide], the Ki amounted to 196 nM in test [1] (setting [4]) and 35.1 nM in test [1] (setting [5]). Further, the IC50 is 26 nM in test [2] and 23 nM in test [3].
